In paper PMC9096814 (Biochemistry, 2022):
Like-named read-outs stand apart in the source and are kept apart here.

Key:
[1] = tested on: cathepsin B; details: ref [44]; cited from earlier work
[2] = molecular target: Cathepsin S (Homo sapiens, UniProt P25774); assay: Selectivity assay, cathepsin S; type: biochemical; details: for % inhibition: 16 μM inhibitor
[3] = molecular target: T1, Cathepsin K (Homo sapiens, UniProt P43235); assay: Selectivity assay, cathepsin K; type: biochemical; details: for % inhibition: 16 μM inhibitor
T1 sequence (P43235 115-329): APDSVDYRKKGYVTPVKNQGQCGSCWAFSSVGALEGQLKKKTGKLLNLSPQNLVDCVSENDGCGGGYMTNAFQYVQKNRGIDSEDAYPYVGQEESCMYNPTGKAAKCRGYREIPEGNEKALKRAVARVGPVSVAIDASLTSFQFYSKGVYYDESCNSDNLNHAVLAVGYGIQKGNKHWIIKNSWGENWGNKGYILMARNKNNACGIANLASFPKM

[4] = molecular target: Cathepsin V (Homo sapiens, UniProt O60911); assay: Selectivity assay, cathepsin V; type: biochemical; details: for % inhibition: 16 μM inhibitor
Sequence of Cathepsin V (O60911 114-334): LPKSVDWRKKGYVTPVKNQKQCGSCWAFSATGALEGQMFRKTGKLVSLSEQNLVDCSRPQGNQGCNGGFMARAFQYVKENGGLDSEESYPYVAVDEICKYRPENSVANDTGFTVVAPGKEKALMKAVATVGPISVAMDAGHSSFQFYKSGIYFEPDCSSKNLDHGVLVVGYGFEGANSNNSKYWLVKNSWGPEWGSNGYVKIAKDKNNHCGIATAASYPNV

[5] = molecular target: Cathepsin L (Homo sapiens, UniProt P07711); assay: Selectivity assay, cathepsin L; type: biochemical; details: for % inhibition: 16 μM inhibitor
Sequence of Cathepsin L (P07711 114-333): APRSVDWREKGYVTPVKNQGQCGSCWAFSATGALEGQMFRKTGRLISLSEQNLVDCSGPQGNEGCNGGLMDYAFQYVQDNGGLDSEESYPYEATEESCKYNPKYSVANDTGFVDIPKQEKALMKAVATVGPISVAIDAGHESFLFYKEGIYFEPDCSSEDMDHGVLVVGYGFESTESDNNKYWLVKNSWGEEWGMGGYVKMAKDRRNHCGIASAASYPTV

[6] = molecular target: T2, cathepsin B (Homo sapiens, UniProt P07858); assay: Irreversible inhibition mechanism by dilution experiments; type: biochemical; details: pH 4.6, pH 5.5, and pH 7.2; preincubation at 10 times the IC50, diluted 100-fold, Z-F-R-AMC added
[7] = molecular target: T2, cathepsin B; assay: Cathepsin B activity assay with Z-Phe-Arg-AMC, inhibition kinetics; type: biochemical; details: for KI (inactivation): read-out: KI, irreversible inhibitor kinetics
[8] = molecular target: Cathepsin C (Homo sapiens, UniProt P53634); assay: Selectivity assay, cathepsin C; type: biochemical; details: for % inhibition: 16 μM inhibitor
Sequence of Cathepsin C (P53634 25-134 limits assumed): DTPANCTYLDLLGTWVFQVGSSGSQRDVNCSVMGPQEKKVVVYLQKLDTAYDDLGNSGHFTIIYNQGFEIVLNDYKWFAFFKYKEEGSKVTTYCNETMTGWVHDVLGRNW
Sequence of Cathepsin C (P53634 231-394 limits assumed): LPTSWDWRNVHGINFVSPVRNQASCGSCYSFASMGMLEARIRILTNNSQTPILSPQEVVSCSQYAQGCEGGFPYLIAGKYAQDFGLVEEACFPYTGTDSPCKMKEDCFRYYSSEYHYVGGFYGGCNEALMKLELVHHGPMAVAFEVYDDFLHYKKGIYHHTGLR
Sequence of Cathepsin C (P53634 395-463 limits assumed): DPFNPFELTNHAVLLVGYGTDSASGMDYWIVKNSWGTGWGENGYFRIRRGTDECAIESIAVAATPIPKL

[9] = molecular target: Cathepsin X (Homo sapiens, UniProt Q9UBR2); assay: Selectivity assay, cathepsin X; type: biochemical; details: for % inhibition: 16 μM inhibitor
Sequence of Cathepsin X (Q9UBR2 62-303): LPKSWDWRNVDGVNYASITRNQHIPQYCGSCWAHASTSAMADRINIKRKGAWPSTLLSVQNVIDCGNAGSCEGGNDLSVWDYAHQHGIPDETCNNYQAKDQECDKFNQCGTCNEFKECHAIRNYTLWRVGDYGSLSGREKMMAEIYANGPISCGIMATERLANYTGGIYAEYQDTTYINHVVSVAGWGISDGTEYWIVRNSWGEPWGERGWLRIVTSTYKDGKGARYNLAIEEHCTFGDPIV

[10] = molecular target: Cathepsin H (Homo sapiens, UniProt P09668); assay: Selectivity assay, cathepsin H; type: biochemical; details: for % inhibition: 16 μM inhibitor
Sequence of Cathepsin H (P09668 116-335 limits assumed, other chains not shown): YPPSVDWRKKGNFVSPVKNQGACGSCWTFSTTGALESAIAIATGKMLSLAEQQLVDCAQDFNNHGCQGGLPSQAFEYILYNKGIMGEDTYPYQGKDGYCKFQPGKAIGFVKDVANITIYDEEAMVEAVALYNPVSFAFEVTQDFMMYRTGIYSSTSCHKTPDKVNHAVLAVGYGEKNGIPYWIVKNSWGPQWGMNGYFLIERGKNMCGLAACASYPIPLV

[11] = molecular target: T2, cathepsin B; assay: Multiplex substrate profiling by mass spectrometry; type: biochemical; details: 10 nM inhibitor, 30 min preincubation

Sequence of Cathepsin S (P25774 115-331): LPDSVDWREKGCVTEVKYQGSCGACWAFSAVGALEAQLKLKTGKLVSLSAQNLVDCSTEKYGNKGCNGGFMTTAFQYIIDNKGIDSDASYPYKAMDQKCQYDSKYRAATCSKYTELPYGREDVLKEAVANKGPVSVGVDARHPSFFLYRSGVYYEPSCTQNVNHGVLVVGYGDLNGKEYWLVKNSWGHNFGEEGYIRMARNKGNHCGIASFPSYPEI

## Cc1cccc(C)c1C(=O)OCC(=O)[C@H](CCCCN)NC(=O)[C@H](CCCN=C(N)N)NC(=O)OCc1ccccc1 [Z-Arg-Lys-AOMK]
[1]
  fold selective at inhibiting cathepsin B at pH 7.4 over pH 4.6: > 100 fold

## CCCNC(=O)[C@H]1O[C@@H]1C(=O)N[C@H](C(=O)N1CCC[C@H]1C(=O)OC)[C@@H](C)CC [CA-074Me]
[2]; pH 4.6
  IC50: > 16 µM
  % inhibition: 22%
[2]; pH 5.5
  IC50: 5.5 µM
[2]; pH 7.2
  IC50: 3.8 µM
[3]; pH 4.6
  IC50: > 16 µM
  % inhibition: 0%
[3]; pH 5.5
  IC50: > 16 µM
  % inhibition: 0%
[3]; pH 7.2
  IC50: > 16 µM
  % inhibition: 16%
[4]; pH 5.5
  IC50: > 16 µM
  % inhibition: 22%
[4]; pH 7.2
  IC50: > 16 µM
  % inhibition: 0%
[5]; pH 4.6
  IC50: > 16 µM
  % inhibition: 0%
[5]; pH 5.5
  IC50: > 16 µM
  % inhibition: 0%
[6]
  irreversible or reversible inhibition of cathepsin B: irreversible inhibition
[7]; pH 4.6
  IC50: 8.9 µM
  fold less potent than CA-074 (IC50): 1495 fold
  kinact: 0.016 s⁻¹
  kinact/KI: 310 M⁻¹ s⁻¹
  KI (inactivation): 52 µM
[7]; pH 4.6, Z-Phe-Arg-AMC substrate, no preincubation
  IC50: 8.97 µM
[7]; pH 5.5
  fold less potent than CA-074 (IC50): 311 fold
  kinact: 0.014 s⁻¹
  kinact/KI: 250 M⁻¹ s⁻¹
  potency (KI) compared to CA-074: 1/265
  KI (inactivation): 56 µM
[7]; pH 5.5, Z-Phe-Arg-AMC substrate, no preincubation
  IC50: 13.7 µM
[7]; pH 7.2
  IC50: 7.6 µM
  fold less potent than CA-074 (IC50): 10 fold
  kinact: 0.014 s⁻¹
  kinact/KI: 480 M⁻¹ s⁻¹
  potency (KI) compared to CA-074: 1/15
  KI (inactivation): 29 µM
[7]; pH 7.2, Z-Phe-Arg-AMC substrate, no preincubation
  IC50: 7.56 µM
[8]; pH 4.6
  IC50: > 16 µM
  % inhibition: 5%
[8]; pH 5.5
  IC50: > 16 µM
  % inhibition: 0%
[8]; pH 7.2
  IC50: > 16 µM
  % inhibition: 4%
[9]; pH 4.6
  IC50: > 16 µM
  % inhibition: 0%
[9]; pH 5.5
  IC50: > 16 µM
  % inhibition: 0%
[10]; pH 4.6
  IC50: > 16 µM
  % inhibition: 0%
[10]; pH 5.5
  IC50: > 16 µM
  % inhibition: 0%
[10]; pH 7.2
  IC50: > 16 µM
  % inhibition: 19%

## CCCNC(=O)[C@H]1O[C@@H]1C(=O)N[C@H](C(=O)N1CCC[C@H]1C(=O)O)[C@@H](C)CC (relative stereo) [CA-074, N-(L-3-trans-propylcarbamoyloxirane-2-carbonyl)-L-isoleucyl-L-proline]
[2]; pH 4.6
  IC50: > 16 µM
[2]; pH 5.5
  IC50: 4.8 µM
[2]; pH 7.2
  IC50: > 16 µM
  % inhibition: 29%
[3]; pH 4.6
  IC50: > 16 µM
[3]; pH 4.6, 16 µM
  % inhibition: 8%
[3]; pH 5.5
  IC50: > 16 µM
[3]; pH 7.2
  IC50: > 16 µM
[4]; pH 4.6
  IC50: > 16 µM
[4]; pH 4.6, 16 µM
  % inhibition: 10%
[4]; pH 5.5
  IC50: > 16 µM
[4]; pH 7.2
  IC50: > 16 µM
[6]
  irreversible or reversible inhibition of cathepsin B: irreversible
[7]; 10 nM inhibitor, pH 7.2
  effect on cathepsin B cleavage of Z-Phe-Arg-AMC substrate: no effect
[8]; pH 4.6
  IC50: > 16 µM
[8]; pH 5.5
  IC50: > 16 µM
[8]; pH 7.2
  IC50: > 16 µM
[9]; pH 4.6
  IC50: > 16 µM
[9]; pH 4.6, 16 µM
  % inhibition: 5%
[9]; pH 5.5
  IC50: > 16 µM
[11]; pH 4.6
  effect on cathepsin B cleavages of peptide library substrates (MSP-MS): blocked
[11]; pH 7.2
  effect on cathepsin B cleavages of peptide library substrates (MSP-MS): no effect
